Like-named read-outs stand apart in the source and are kept apart here.
Legend:
Type in all cases: cell-based, human
[1] = tested on: T98G cells; test: MTT cell viability assay in T98G glioblastoma cells; conditions: for IC50: Homo sapiens; for IC50 / percentage of cell viability: T98G cells, MTT; for percentage of cell viability: 40 or 80 μM; for anti-glioblastoma activity (in words): T98G cultures
Procedure: (§1) T98G cells were isolated from the brain of a glioblastoma multiforme patient (ATCC, cat. No. CRl-1690, RRUD: CVCL-0556, Manassas, VA, USA). HEK 293 cells are derived from human embryonic kidney cells (ATCC Cat# CRL-1573, RRID: CVCL_0045). Both cell lines were grown in Dulbecco’s modified Eagle’s medium (DMEM, Invitrogen) supplemented with 10% fetal serum bovine serum (FBS) at 37 °C according to reference.
(§2) 3 × 10^3 cells were seeded in a 96-well plate and were allowed to attach overnight at 37 °C. T98G cells were treated in duplicate or triplicate with different concentrations of the crude/chemically modified extract or pure compounds. The stock solutions were dissolved in DMSO at the final concentration of 160 mg/ml and 5 or 80 mM for the crude/chemically modified extracts and pure compounds, respectively. After 24 h, 100 μL of DMEM supplemented with 10% of FBS and 10% of 3-(4,5-dimethylthiazol-2-yl)-2,5-diphenyltetrazolium bromide (MTT) reagent (5 mg/mL; Sigma) were added to each well, and plates were further incubated for 2 h at 37 °C as described in references,[36]. Then, 100 μL of DMSO:isopropanol (1:1, v/v) were added to each well followed by incubation for a few minutes at room temperature protected from light. Absorbance was analyzed at 570 nm with a reference at 650 nm in an Epoch Microplate Spectrophotometer. Cells incubated with an equivalent DMSO concentration were considered 100% of viability. The equation “log(inhibitor) vs response—variable slope (four parameters) of the GraphPad Prism software was used to calculate the IC50 (half maximal inhibitory concentration) value.
To evaluate the standard treatment, T98G cultures were treated with temozolomide (5 to 1400 μM). After 72 h, the MTT assay was used to determined cell viability and the IC50 value was calculated as describe above.

[2] = tested on: HEK 293 cells; test: MTT cell viability assay in non-tumor HEK 293 cells; conditions: for selectivity index: HEK 293 versus T98G
Procedure: as §1, §2

[3] = tested on: T98G cells; test: Temporal susceptibility: MTT viability of dexamethasone-synchronized T98G cells; conditions: for viability at 13.6 µM: Homo sapiens, 24 h, read-out: cell viability
Procedure: T98G cells were seeded at the density of 3 × 10^3 in a 96-well plate and incubated overnight at 37 °C. Cultured cells were synchronized with dexamethasone (100 nM, 1 h at 37 °C) according to reference and then treated with (3) (13.6 μM) or DMSO at different times post-synchronization for 24 h. After incubation, cell viability was measured by MTT assay as described above. Cells incubated with DMSO were considered as 100% of viability.

[4] = pure compounds, 24 h, read-out: IC50

Compound	IC50 [1, 4] [µM]	percentage of cell viability ([1]; 24 h)	anti-glioblastoma activity (in words) [1]	also measured
C=C1C(=O)O[C@@H]2[C@H]1CC[C@H](C)[C@]1(CCC(=O)O1)[C@@]2(C)O [PsiA, psilostachyin A]	17.4			selectivity index [2]: Only 3 showed a good selectivity index
C=C1C(=O)OC2C1CCC(C)=C1CCC(=O)OC12C (stereo not shown) [PsiB, psilostachyin B]	13.9			
C=C1C(=O)OC2C1CCC(C)C1CCC(=O)OC12C (stereo not shown) [PsiC, psilostachyin C]	14.2			
Cn1nnc2c(C(N)=O)ncn2c1=O [Temozolomide, reference compound]				IC50 ([1]; standard treatment, 72 h, read-out: IC50): 844 µM
CC1=C(/C=C/C(=O)O)[C@]2(C)CC[C@@H](C=C2C(=O)O)C1 [compound 1, (1R,5S)-4-((E)-2-carboxyvinyl)-3,5-dimethylbicyclo[3.2.2]nona-3,6-diene-6-carboxylic acid]		higher than 50%	weak anti-glioblastoma activity	
COC(=O)/C=C/C1=C(C)C[C@@H]2C=C(C(=O)OC)[C@@]1(C)CC2 [compound 2, Methyl (1R,5S)-4-((E)-3-methoxy-3-oxoprop-1-en-1-yl)-3,5-dimethylbicyclo[3.2.2]nona-3,6-diene-6-carboxylate]		higher than 50%	weak anti-glioblastoma activity	
C=C1C(=O)O[C@H]2C(=C)[C@@]3(CCC(=O)O3)[C@@H](C)CC[C@@H]12 [compound 3, (3aS,6S,7R,8aR)-6-methyl-3,8-dimethyleneoctahydro-5'H-spiro[cyclohepta[b]furan-7,2'-furan]-2,5'(3H)-dione]	13.6		most active derivative of the series	viability at 13.6 µM ([3]; T98G cells treated at 18 and 24 h post synchronization): 45 to 50%; viability at 13.6 µM ([3]; non-synchronized T98G cells): ~75%; effect of time post synchronization on cell viability ([3]; T98G cells, Kruskal Wallis test): significant effect of time on cell viability; selectivity index [2]: good selectivity index; IC50 ([2]; Homo sapiens, HEK293, 24 h, HEK 293 cells, 24 h, MTT): ~39 µM
C=C1C(=O)O[C@H]2C(=C)[C@]3(CCC(=O)O3)[C@@H](C)CC[C@@H]12 [compound 4, (3aS,6S,7S,8aR)-6-methyl-3,8-dimethyleneoctahydro-5'H-spiro[cyclohepta[b]furan-7,2'-furan]-2,5'(3H)-dione]			less active	IC50 ([1]; 24 h, 10 to 160 µg/mL tested, read-out: concentration needed to reduce 50% of cell viability): > 40 µg/mL
C=C1C(=O)OC2C(=C)C(CCC(=O)OC)C(C)CCC12 (stereo not shown) [compound 5]		higher than 50%	weak anti-glioblastoma activity	
Methyl 3-((3aS,6S,7S,8aR)-6-methyl-3,8-dimethylene-2-oxooctahydro-2H-cyclohepta[b]furan-7-yl)propanoate [compound 11]		higher than 50%	weak anti-glioblastoma activity	
